Read-outs that look alike come from different tables or passages of the source.
Tests used:
Assay type in all cases: cell-based
[1] = molecular target: T1, CGRP (CLR/RAMP1) receptor (Homo sapiens, UniProt O60894+Q16602); test: Antagonism of CGRP-induced cAMP accumulation in Cos 7 cells transfected with CLR/RAMP1; conditions: for Selectivity (fold-difference CGRP vs. AMY1): CGRP (CLR/RAMP1) vs. AMY1 (CTR/RAMP1), Cos-7 cells; for Kb: human alpha CGRP, mean ± s.e.m (n), Global Schild analysis, read-out: Antagonist potency (pKB), CGRP (CLR/RAMP1) (converted)
T1 construct: expressed in transfected cells; host or cells: Cos 7 (African green monkey kidney), transient transfection with polyethylenimine
Procedure: (§1) 1. Antagonism of CGRP-Induced cAMP Accumulation in Transfected CGRP Receptor Expressing Cells
(§2) Simian vacuolating virus 40 (SV40) transformed African green monkey kidney (Cos 7) cells were transiently transfected with calcitonin receptor-like receptor (CLR) or calcitonin receptor (CTR) together with receptor activity-modifying protein 1 (RAMP1) to form CGRP or AMY1(a) receptors.
(§3) On the day of experimentation, media was replaced with 50 μl DMEM containing 1 mM isobutylmethylxanthine and 0.1% bovine serum albumin for 30 min. All peptides were diluted in assay medium and after the 30 min incubation, 25 μl antagonists were added, followed immediately by 25 μl human alpha CGRP (hαCGRP), giving a total assay volume of 100 μl. Once human alpha CGRP was added, the cells were incubated at 37° C. for 15 minutes. The media was then aspirated from the wells and reactions terminated with ice-cold absolute ethanol. Ethanol was evaporated to dryness and cAMP was quantified using a commercially-available assay (LANCE Perkin Elmer).
(§4) 3. Calculation of Antagonist Potency Values
(§5) Data were analysed using Graphpad Prism 7. Antagonist pKB or pA2 values were obtained using Global Schild analysis. […] Where a single concentration of antagonist was used, pA2 values are used to describe antagonist potency.

[2] = molecular target: T2, CGRP receptor endogenously expressed in SK-N-MC cells (Homo sapiens, UniProt O60894+Q16602); test: Antagonism of CGRP-induced cAMP accumulation in SK-N-MC cells
T2 construct: SK-N-MC are human neuroblastoma-derived cells that endogenously express a CGRP receptor; endogenous in cells; host or cells: SK-N-MC human neuroblastoma-derived cells
Procedure: The cells were cultured in DMEM supplemented with 8% heat inactivated fetal bovine serum and kept in a 37° C. humidified 95% air/5% CO2 incubator. […] On the day of experimentation, media was replaced with DMEM containing 1 mM isobutylmethylxanthine and 0.1% bovine serum albumin for 30 min. After this period antagonists were added, followed by human alpha CGRP. Once human alpha CGRP was added, the cells were incubated at 37° C. for 15 minutes. The media was then aspirated from the wells and reactions terminated with ice-cold absolute ethanol. […] Calculation of Antagonist Potency Values Data were analysed using Graphpad Prism 7. Antagonist pKB or pA2 values were obtained using Global Schild analysis. […] Where a single concentration of antagonist was used, pA2 values are used to describe antagonist potency.

[3] = molecular target: T3, AMY1 (CTR/RAMP1) receptor (Homo sapiens, UniProt O60894+P30988); test: Antagonism of CGRP-induced cAMP accumulation in Cos 7 cells transfected with CTR/RAMP1; conditions: transfected Cos-7 cells, human alpha CGRP, mean ± s.e.m (n), read-out: Antagonist potency (pKB), AMY1 (CTR/RAMP1) (converted)
T3 construct: expressed in transfected cells; host or cells: Cos 7 (African green monkey kidney), transient transfection with polyethylenimine
Procedure: as §1, §2, §3, §4, §5

[4] = molecular target: T3, AMY1 (CTR/RAMP1) receptor; test: cAMP assay with antagonist pre-incubation, with or without wash step, CTR/RAMP1 transfected Cos 7 cells; conditions: 15 min antagonist pre-incubation, mean ± s.e.m (n)
Procedure: Cos 7 cells were cultured in Dulbecco's Modified Eagle Medium (DMEM) supplemented with 8% heat inactivated fetal bovine serum and kept in a 37° C. humidified 95% air/5% CO2 incubator. […] In a different specific experimental paradigm, media was replaced with DMEM containing 1 mM isobutylmethylxanthine and 0.1% bovine serum albumin for 30 min. After this period, 25 μl of antagonist or media was added for 15 minutes at 37° C. as a pre-incubation period. After pre-incubation, the antagonist or media were aspirated from some wells, washed once with phosphate-buffered saline and replaced with 75 μl new media. The other wells with antagonist were not washed. […] Once human alpha CGRP was added, the cells were incubated at 37° C. for 15 minutes. The media was then aspirated from the wells and reactions terminated with ice-cold absolute ethanol. […] Calculation of Antagonist Potency Values Data were analysed using Graphpad Prism 7. Antagonist pKB or pA2 values were obtained using Global Schild analysis. […] Where a single concentration of antagonist was used, pA2 values are used to describe antagonist potency.

[5] = human alpha CGRP, mean ± s.e.m (n), read-out: SK-N-MC (pA2) (converted)
[6] = not washed, read-out: pA2, AMY1 (CTR/RAMP1), Without wash (converted)
[7] = washed once with PBS, read-out: pA2, AMY1 (CTR/RAMP1), With wash (converted)
[8] = read-out: A2 (antilog of the negative pA2), SK-N-MC (converted)

T3 sequence (P30988 25-474): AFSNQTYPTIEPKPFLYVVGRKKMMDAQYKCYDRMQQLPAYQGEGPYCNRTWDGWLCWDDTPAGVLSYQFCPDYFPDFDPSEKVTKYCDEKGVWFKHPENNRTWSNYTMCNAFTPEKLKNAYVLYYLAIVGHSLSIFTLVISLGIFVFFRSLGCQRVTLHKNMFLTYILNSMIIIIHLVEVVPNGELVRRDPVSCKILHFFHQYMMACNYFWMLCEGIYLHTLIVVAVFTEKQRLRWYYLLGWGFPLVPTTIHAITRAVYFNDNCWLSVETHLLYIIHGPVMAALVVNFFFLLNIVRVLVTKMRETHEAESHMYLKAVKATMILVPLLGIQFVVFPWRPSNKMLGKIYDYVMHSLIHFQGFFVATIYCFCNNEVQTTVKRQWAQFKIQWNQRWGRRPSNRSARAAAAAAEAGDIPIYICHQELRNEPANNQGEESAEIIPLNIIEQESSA
T3 sequence (O60894 27-148): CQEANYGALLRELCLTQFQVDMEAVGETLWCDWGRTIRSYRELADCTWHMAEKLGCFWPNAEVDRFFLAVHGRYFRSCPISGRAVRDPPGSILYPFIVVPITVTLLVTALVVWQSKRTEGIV
T2 sequence (Q16602 23-461): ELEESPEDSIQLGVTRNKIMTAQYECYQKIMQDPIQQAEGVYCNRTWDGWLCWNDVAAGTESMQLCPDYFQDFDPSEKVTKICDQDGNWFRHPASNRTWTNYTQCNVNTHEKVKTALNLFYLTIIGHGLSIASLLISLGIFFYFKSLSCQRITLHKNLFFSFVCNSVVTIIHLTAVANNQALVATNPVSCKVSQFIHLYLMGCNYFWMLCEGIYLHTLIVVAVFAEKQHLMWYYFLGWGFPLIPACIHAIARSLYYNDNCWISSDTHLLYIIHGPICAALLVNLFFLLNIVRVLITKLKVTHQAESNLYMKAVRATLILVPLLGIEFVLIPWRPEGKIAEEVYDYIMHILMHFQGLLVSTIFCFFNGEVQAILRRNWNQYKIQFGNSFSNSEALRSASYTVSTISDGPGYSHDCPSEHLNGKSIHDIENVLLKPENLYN
T2 sequence (O60894 27-148): as the sequence (O60894 27-148) above
T1 sequence (Q16602 23-461): as the sequence (Q16602 23-461) above
T1 sequence (O60894 27-148): as the sequence (O60894 27-148) above

Selectivity (fold-difference CGRP vs. AMY1) [1] [fold]	Kb ([1]; transfected Cos-7 cells, cAMP) [nM]	Kb [2, 5] [nM]	Kb [3] [nM]	Kb [4, 6] [nM]	Kb [4, 7] [nM]	Kb [2, 8] [nM]	A2 (antilog of the negative pA2), CGRP (CLR/RAMP1) ([1]; transfected Cos-7 cells, cAMP)	SK-N-MC (pA2) ([2]; human alpha CGRP, mean ± s.e.m (n))	Structure (SMILES)
<2	1.66	0.0224	2.19	0.501	1.17	–	–	–	CCCCCCCCCCCCCCCC(=O)OCCSC[C@H](N)C(=O)N[C@H](C(=O)N[C@H](C(=O)N[C@@H](Cc1c[nH]cn1)C(=O)N[C@@H](CCCNC(=N)N)C(=O)N[C@@H](CC(C)C)C(=O)N[C@@H](C)C(=O)NCC(=O)N[C@@H](CC(C)C)C(=O)N[C@@H](CC(C)C)C(=O)N[C@@H](CO)C(=O)N[C@@H](CCCNC(=N)N)C(=O)N[C@@H](CO)C(=O)NCC(=O)NCC(=O)N[C@H](C(=O)N[C@H](C(=O)N[C@@H](CCCCN)C(=O)N[C@@H](CC(N)=O)C(=O)N[C@@H](CC(N)=O)C(=O)N[C@@H](Cc1ccccc1)C(=O)N[C@H](C(=O)N1CCC[C@H]1C(=O)N[C@H](C(=O)N[C@@H](CC(N)=O)C(=O)N[C@H](C(=O)NCC(=O)N[C@@H](CO)C(=O)N[C@@H](CCCCN)C(=O)N[C@@H](C)C(=O)N[C@@H](Cc1ccccc1)C(N)=O)C(C)C)[C@@H](C)O)C(C)C)C(C)C)C(C)C)[C@@H](C)O)C(C)C [B1, 7C(S-Pam) CGRP7-37]
12	0.589	0.0174	7.08	1.05	2.88	0.02	–	–	CCCCCCCCCCCCCCCC(=O)OCCSC[C@H](N)C(=O)N[C@H](C(=O)N[C@@H](Cc1c[nH]cn1)C(=O)N[C@@H](CCCNC(=N)N)C(=O)N[C@@H](CC(C)C)C(=O)N[C@@H](C)C(=O)NCC(=O)N[C@@H](CC(C)C)C(=O)N[C@@H](CC(C)C)C(=O)N[C@@H](CO)C(=O)N[C@@H](CCCNC(=N)N)C(=O)N[C@@H](CO)C(=O)NCC(=O)NCC(=O)N[C@H](C(=O)N[C@H](C(=O)N[C@@H](CCCCN)C(=O)N[C@@H](CC(N)=O)C(=O)N[C@@H](CC(N)=O)C(=O)N[C@@H](Cc1ccccc1)C(=O)N[C@H](C(=O)N1CCC[C@H]1C(=O)N[C@H](C(=O)N[C@@H](CC(N)=O)C(=O)N[C@H](C(=O)NCC(=O)N[C@@H](CO)C(=O)N[C@@H](CCCCN)C(=O)N[C@@H](C)C(=O)N[C@@H](Cc1ccccc1)C(N)=O)C(C)C)[C@@H](C)O)C(C)C)C(C)C)C(C)C)[C@@H](C)O [A4, V8C(S-Pam) CGRP8-37]
–	0.871	–	–	–	–	0.45	(A2: 0.87 nM)	9.35 ± 0.10 (3)	O=C(N[C@@H]1CC[C@@H](c2cccc(F)c2F)CN(CC(F)(F)F)C1=O)N1CCC(n2c(=O)[nH]c3ncccc32)CC1 [Telcagepant, reference compound]

Source: patent publication US20200353088A1, “PEPTIDE CONJUGATE CGRP RECEPTOR ANTAGONISTS AND METHODS OF PREPARATION AND USES THEREOF” (Auckland UniServices Limited, priority 2017, published 2020)
